Laboratory results from the NIST ThermoML archive (doi:10.1021/acs.jced.7b00722).

Tests used:
[1] = refractive index (Na D-line) (dimensionless); wn = mass fraction of the nth substance listed; details: 298.15 K, 100 kPa, Liquid, Standard Abbe refractometry
[2] = wn = mass fraction of the nth substance listed; details: 298.15 K, 100 kPa, Liquid; for viscosity: Falling or rolling sphere viscometry; for mass density: Vibrating tube method
[3] = refractive index (Na D-line) (dimensionless); details: 298.15 K; 100 kPa; Liquid; Standard Abbe refractometry
[4] = 298.15 K; 100 kPa; Liquid; Falling or rolling sphere viscometry

O=C([O-])[C@H](O)[C@@H](O)C(=O)[O-].[K+].[K+] [dipotassium L-tartrate] + O
Details	mass density, [2] [kg/m3]	refractive index, [1]	viscosity, [2] [mPa·s]
w1 = 0.02	1006	1.3345	0.929
w1 = 0.04	1019.6	1.3374	0.965
w1 = 0.06	1033.3	1.3403	0.998
w1 = 0.08	1046.9	1.3432	1.04
w1 = 0.1	1060.6	1.3461	1.09
w1 = 0.15	1094.7	1.3533	1.191
w1 = 0.2	1128.9	1.3606	1.313
w1 = 0.25	1163	1.3678	1.46
w1 = 0.3	1197.1	1.375	1.59
w1 = 0.4	1265.4	1.3895	1.91

O [water]
Details	refractive index	viscosity [mPa·s]
[3]	1.3327	–
[4]	–	0.894

O [water] + O=C([O-])[C@H](O)[C@@H](O)C(=O)[O-].[K+].[K+]
w2 = 0
Details	refractive index	viscosity [mPa·s]
[1]	1.3327	–
[2]	–	0.894
